From patent US9353415B2, “Methods for functional analysis of high-throughput experimental data and gene groups identified therefrom” (Thomson Reuters (Scientific) LLC, priority 2006, dated 2016)

Test system: CREB pathway
Test: microarray gene expression from the livers of rats exposed to drugs, mapped on pathway maps (signature networks method)
Type: in vivo
Conditions: rat liver, treated vs untreated, custom cDNA two-channel arrays, five repeats; no threshold for fold change and P-values; FIG. 16C
Description: This dataset contains microarray gene expression from the livers of rats exposed to three drugs: phenobarbital, mestranol, and tamoxifen. The data were produced by custom cDNA two-channel arrays. Five biological repeats were performed for each treatment and a set of five samples from the untreated animals were analyzed.
A pre-computed comprehensive set of overlapping canonical pathways derived from 450 signaling and metabolic pathway maps manually created using a general database, MetaCore™ was obtained. These pathways then were used as a framework for mapping experimental datasets as well as to calculate the network modules most relevant to specific pathways (FIG. 15). The maps feature approximately 3,000 proteins and over 2,000 overlapping human pathways. On these maps, typical signaling inputs (indicated by block arrows) are identified. The network modules were then generated as chains of interactions/reactions initiated at one of the signaling inputs and followed down to the last protein identified in the canonical pathway; such termini often are transcription factors and their targets. These pathways represent linear modules of cell signaling, usually parts of signaling cascades between secondary messengers and transcription factors. […]
FIG. 16C is the top scored CREB pathway map for the genes content of the network A. Gene expression was mapped without thresholds. […]

CC/C(=C(\c1ccccc1)c1ccc(OCCN(C)C)cc1)c1ccccc1 [tamoxifen]
direction of expression (fold change) of genes on the highest scored pathway map, CREB pathway: down-regulated
